Experimental data as given in patent publication US4029780A, “3-Piperazinyl 1,2,4-benzothiadiazine 1,1-dioxide derivatives their compositions and method of use” (Dainippon Pharmaceutical Co., Ltd., priority 1974, dated 1977).

Key:
[1] = literature, cited from earlier work
[2] = literature; cited from earlier work
[3] = test system: Spontaneously hypertensive male rats; test: Antihypertensive activity in spontaneously hypertensive rats (oral, 10 successive days); type: in vivo, rat; conditions: for Fall in blood pressure / Blood pressure: 10 mg/kg/day p.o.
Description: Spontaneously hypertensive male rats [SHR, Jap. Circ. J. 27, 282-93 (1963)] being 18-23 weeks of age and having systolic blood pressure levels of 170-190 mmHg were used. The test compounds were each suspended in a 0.5% aqueous tragacanth solution and administered orally in a dose of 10 mg/kg/day by stomach tube to SHR once a day for 10 successive days. The blood pressure of conscious SHR was measured prior to dosing and 5 hours after administration. It was also measured once daily over a period of 7 days after the end of the treatment period. The measurement of the blood pressure was made by a plethysmographtail method [Jap. Circ. J. 27, 282-93 (1963)].

Male Wistar rats [4] = test: Effect on urine volume and electrolyte excretion; type: in vivo, rat; conditions: for Cl- / K+ / Na+ / Na+/K+: urinary excretion over 5 hours; for Urine volume: 5 hours
Description: Male Wistar rats weighing 220 to 260 g were used. Each test compound was suspended in a solution of tragacanth dissolved in a concentration of 0.5% in a 0.9% saline solution so that the volume of the resulting suspension to be administered would be always 25 ml/Kg. The test compounds were administered orally by the stomach tube to the animals at the prescribed doses. The animals were then placed in a metabolic cage and the urine was collected over a period of 5 hours. The total amount of sodium, potassium and chloride excreted was determined by Auto-Analyzer, made by Technicon Instruments Corporation.

Male Wistar rats [5] = test: Effect on blood glucose (a), oral; conditions: 300 mg/kg p.o.; for Effect on blood glucose level: rats
Description: (a) Male Wistar rats weighing 190-210 g were used. Each test compound was suspended in a concentration of 150 mg/ml in a 0.5% aqueous tragacanth solution and orally administered at a dose of 300 mg/kg by the stomach tube.

Male Wistar rats [6] = test: Effect on blood glucose (b), intraperitoneal; conditions: 300 mg/kg i.p.; for Effect on blood glucose level: rats
Description: (b) Male Wistar rats weighing 260-285 g were used. […] 4 ml/kg of the above solution of each test compound was intraperitoneally administered to each animal. The blood samples were taken prior to dosing and 1, 3 and 6 hours after the administration and the plasma glucose levels were determined in a similar manner to that described in (a).

[7] = test system: Spontaneously hypertensive rats; test: Glucose tolerance test; conditions: 300 mg/kg p.o. once a day, 22 days; 1.25 g/kg oral glucose
Description: Spontaneously hypertensive rats weighing 360 to 400 g were used. Each of the test compounds was suspended in a 0.5% aqueous tragacanth solution, and orally administered to the animals at a dose of 300 mg/kg once a day for 22 consecutive days. The control group was given only the 0.5% aqueous tragacanth solution. After the final administration, the animals were caused to fast for 20 hours, and subjected to a glucose tolerance test by an oral application of 1.25 g/kg of glucose.

[8] = Toxicity (LD50), JCL-SD rats; conditions: rat, in vivo
Text: (§1) Male and female JCL-ICR strain mice, weighing 20-30 g (each group: 8 mice), and male and female JCL-SD strain rats, weighing 150-250 g (each group: 8 rats) were used.

[9] = Toxicity (LD50), JCL-ICR mice; conditions: mouse, in vivo
Text: as §1

[10] = day 0, 5 hours after administration
[11] = day 2, 5 hours after administration
[12] = day 4, 5 hours after administration
[13] = day 6, 5 hours after administration
[14] = day 8, 5 hours after administration
[15] = day 10, 24 hours after the final treatment
[16] = day 14, 120 hours after the final treatment
[17] = iv, female, dissolved with stoichiometric NaOH, 95% confidence limits in parentheses
[18] = iv, male, dissolved with stoichiometric NaOH, 95% confidence limits in parentheses
[19] = po, female, suspended in 0.5% tragacanth
[20] = po, male, suspended in 0.5% tragacanth
[21] = sc, female, dissolved with stoichiometric NaOH
[22] = sc, male, dissolved with stoichiometric NaOH

O=S1(=O)NC(N2CCOCC2)=Nc2cc(C(F)(F)F)ccc21 [3-morpholino-6-trifluoromethyl-2H-1,2,4-benzothiadiazine 1,1-dioxide]
Antihypertensive activity [1]: no antihypertensive activity

NC1=Nc2cc(C(F)(F)F)ccc2S(=O)(=O)N1 [6-trifluoromethyl-3-amino-2H-1,2,4-benzothiadiazine 1,1-dioxide]
Antihypertensive activity [1]: substantially the same degree of antihypertensive activity as diazoxide | Antidiuretic activity [2]: antidiuretic activity similar to that of diazoxide

COc1cc2c(cc1OC)S(=O)(=O)NC(N1CCN(C)CC1)=N2 [Compound 1, 6,7-Dimethoxy-3-(4-methyl-1-piperazinyl)-2H-1,2,4-benzothiadiazine 1,1-dioxide]
Antihypertensive activity [1]: no antihypertensive activity | Fall in blood pressure [3]: did not cause any significant fall in blood pressure | Blood pressure [3, 10]: 188 mm Hg | Blood pressure ([3]; day 0, prior to dosing (0)): 189 mm Hg | Blood pressure [3, 11]: 186 mm Hg | Blood pressure ([3]; day 2, prior to dosing (0)): 187 mm Hg | Blood pressure [3, 12]: 184 mm Hg | Blood pressure ([3]; day 4, prior to dosing (0)): 185 mm Hg | Blood pressure [3, 13]: 184 mm Hg | Blood pressure ([3]; day 6, prior to dosing (0)): 187 mm Hg | Blood pressure [3, 14]: 187 mm Hg | Blood pressure ([3]; day 8, prior to dosing (0)): 189 mm Hg | Blood pressure [3, 15]: 187 mm Hg | Blood pressure [3, 16]: 188 mm Hg

O=S1(=O)NC(N2CCCCC2)=Nc2ccccc21 [Compound 2, 3-Piperidino-2H-1,2,4-benzothiadiazine 1,1-dioxide]
Antihypertensive activity in intravenous administration ([1]; intravenous): slight antihypertensive activity | Fall in blood pressure [3]: did not cause any significant fall in blood pressure | Blood pressure [3, 10]: 180 mm Hg | Blood pressure ([3]; day 0, prior to dosing (0)): 187 mm Hg | Blood pressure [3, 11]: 181 mm Hg | Blood pressure ([3]; day 2, prior to dosing (0)): 186 mm Hg | Blood pressure [3, 12]: 183 mm Hg | Blood pressure ([3]; day 4, prior to dosing (0)): 182 mm Hg | Blood pressure [3, 13]: 186 mm Hg | Blood pressure ([3]; day 6, prior to dosing (0)): 186 mm Hg | Blood pressure [3, 14]: 183 mm Hg | Blood pressure ([3]; day 8, prior to dosing (0)): 186 mm Hg | Blood pressure [3, 15]: 184 mm Hg | Blood pressure [3, 16]: 182 mm Hg | Antihypertensive activity in oral administration ([3]; oral): does not show antihypertensive activity

NS(=O)(=O)c1cc2c(cc1Cl)NCNS2(=O)=O [Compound 4, Hydrochlorothiazide]
Change in Na+/K+ (Male Wistar rats [4]; 1 mg/kg p.o.): marked increase | Cl- (Male Wistar rats [4]; 1.0 mg/kg p.o.): 1.38 mEq | Blood glucose (Male Wistar rats [5]; 0 hr (prior to dosing)): 104 mg/dL | Blood glucose (Male Wistar rats [5]; 1 hr): 114 mg/dL | Blood glucose (Male Wistar rats [5]; 3 hr): 111 mg/dL | Blood glucose (Male Wistar rats [5]; 6 hr): 112 mg/dL | Blood glucose (Male Wistar rats [5]; 10 hr): 113 mg/dL | Blood pressure [3, 10]: 168 mm Hg | Blood pressure ([3]; day 0, prior to dosing (0)): 172 mm Hg | Blood pressure [3, 11]: 152 mm Hg | Blood pressure ([3]; day 2, prior to dosing (0)): 163 mm Hg | Blood pressure [3, 12]: 150 mm Hg | Blood pressure ([3]; day 4, prior to dosing (0)): 158 mm Hg | Blood pressure [3, 13]: 138 mm Hg | Blood pressure ([3]; day 6, prior to dosing (0)): 151 mm Hg | Blood pressure [3, 14]: 140 mm Hg | Blood pressure ([3]; day 8, prior to dosing (0)): 152 mm Hg | Blood pressure [3, 15]: 153 mm Hg | Blood pressure [3, 16]: 165 mm Hg | Blood glucose (Male Wistar rats [6]; 0 hr (prior to dosing)): 100 mg/dL | Blood glucose (Male Wistar rats [6]; 1 hr): 257 mg/dL | Blood glucose (Male Wistar rats [6]; 3 hr): 220 mg/dL | Blood glucose (Male Wistar rats [6]; 6 hr): 144 mg/dL

CN1CCN(C2=Nc3ccc(Cl)cc3S(=O)(=O)N2)CC1 [Compound A, 7-chloro-3-(4-methyl-1-piperazinyl)-2H-1,2,4-benzothiadiazine 1,1-dioxide]
Change in Na+/K+ (Male Wistar rats [4]; 100 mg/kg p.o.): some increase | Change in electrolyte excretion (Male Wistar rats [4]; 100 mg/kg p.o.): no significant change | Change in urine volume (Male Wistar rats [4]; 100 mg/kg p.o.): no significant change | Urine volume (Male Wistar rats [4]; 100 mg/kg p.o.): 3.58 mL | Cl- (Male Wistar rats [4]; 100 mg/kg p.o.): 0.90 mEq | K+ (Male Wistar rats [4]; 100 mg/kg p.o.): 0.40 mEq | Na+ (Male Wistar rats [4]; 100 mg/kg p.o.): 0.78 mEq | Na+/K+ (Male Wistar rats [4]; 100 mg/kg p.o.): 1.93 | Blood glucose levels after application of glucose, compared with control group [7]: same glucose tolerance pattern as the control group | Glucose tolerance [7]: no abnormality was observed in glucose tolerance | LD50 at 168 h [8, 17]: 740 mg/kg | LD50 at 168 h [8, 18]: 551 mg/kg | LD50 at 168 h [8, 19]: > 5000 mg/kg | LD50 at 168 h [8, 20]: > 5000 mg/kg | LD50 at 168 h [8, 21]: > 1000 mg/kg | LD50 at 168 h [8, 22]: > 1000 mg/kg | LD50 at 168 h [9, 17]: 242 mg/kg | LD50 at 168 h [9, 18]: 267 mg/kg | LD50 at 168 h [9, 19]: > 5000 mg/kg | LD50 at 168 h [9, 20]: > 5000 mg/kg | LD50 at 168 h [9, 21]: > 2410 mg/kg | LD50 at 168 h [9, 22]: > 2410 mg/kg | Blood glucose (Male Wistar rats [5]; 0 hr (prior to dosing)): 105 mg/dL | Blood glucose (Male Wistar rats [5]; 1 hr): 105 mg/dL | Blood glucose (Male Wistar rats [5]; 3 hr): 107 mg/dL | Blood glucose (Male Wistar rats [5]; 6 hr): 103 mg/dL | Blood glucose (Male Wistar rats [5]; 10 hr): 110 mg/dL | Effect on blood glucose level (Male Wistar rats [5]): substantially no effect | Blood pressure [3, 10]: 172 mm Hg | Blood pressure ([3]; day 0, prior to dosing (0)): 172 mm Hg | Blood pressure [3, 11]: 155 mm Hg | Blood pressure ([3]; day 2, prior to dosing (0)): 167 mm Hg | Blood pressure [3, 12]: 151 mm Hg | Blood pressure ([3]; day 4, prior to dosing (0)): 158 mm Hg | Blood pressure [3, 13]: 131 mm Hg | Blood pressure ([3]; day 6, prior to dosing (0)): 144 mm Hg | Blood pressure [3, 14]: 135 mm Hg | Blood pressure ([3]; day 8, prior to dosing (0)): 143 mm Hg | Blood pressure [3, 15]: 139 mm Hg | Blood pressure [3, 16]: 165 mm Hg | Blood glucose (Male Wistar rats [6]; 0 hr (prior to dosing)): 94 mg/dL | Blood glucose (Male Wistar rats [6]; 1 hr): 102 mg/dL | Blood glucose (Male Wistar rats [6]; 3 hr): 103 mg/dL | Blood glucose (Male Wistar rats [6]; 6 hr): 111 mg/dL | Effect on blood glucose level (Male Wistar rats [6]): substantially no effect

CN1CCN(C2=Nc3ccccc3S(=O)(=O)N2)CC1 [Compound B, 3-(4-methyl-1-piperazinyl)-2H-1,2,4-benzothiadiazine 1,1-dioxide]
Change in electrolyte excretion (Male Wistar rats [4]; 100 mg/kg p.o.): no significant change | Change in urine volume (Male Wistar rats [4]; 100 mg/kg p.o.): no significant change | Urine volume (Male Wistar rats [4]; 100 mg/kg p.o.): 3.06 mL | Cl- (Male Wistar rats [4]; 100 mg/kg p.o.): 0.89 mEq | K+ (Male Wistar rats [4]; 100 mg/kg p.o.): 0.48 mEq | Na+ (Male Wistar rats [4]; 100 mg/kg p.o.): 0.64 mEq | Na+/K+ (Male Wistar rats [4]; 100 mg/kg p.o.): 1.34 | Blood glucose (Male Wistar rats [5]; 0 hr (prior to dosing)): 106 mg/dL | Blood glucose (Male Wistar rats [5]; 1 hr): 107 mg/dL | Blood glucose (Male Wistar rats [5]; 3 hr): 109 mg/dL | Blood glucose (Male Wistar rats [5]; 6 hr): 104 mg/dL | Blood glucose (Male Wistar rats [5]; 10 hr): 110 mg/dL | Effect on blood glucose level (Male Wistar rats [5]): substantially no effect | Blood pressure [3, 10]: 167 mm Hg | Blood pressure ([3]; day 0, prior to dosing (0)): 169 mm Hg | Blood pressure [3, 11]: 161 mm Hg | Blood pressure ([3]; day 2, prior to dosing (0)): 167 mm Hg | Blood pressure [3, 12]: 154 mm Hg | Blood pressure ([3]; day 4, prior to dosing (0)): 159 mm Hg | Blood pressure [3, 13]: 144 mm Hg | Blood pressure ([3]; day 6, prior to dosing (0)): 160 mm Hg | Blood pressure [3, 14]: 136 mm Hg | Blood pressure ([3]; day 8, prior to dosing (0)): 149 mm Hg | Blood pressure [3, 15]: 146 mm Hg | Blood pressure [3, 16]: 166 mm Hg | Blood glucose (Male Wistar rats [6]; 0 hr (prior to dosing)): 100 mg/dL | Blood glucose (Male Wistar rats [6]; 1 hr): 111 mg/dL | Blood glucose (Male Wistar rats [6]; 3 hr): 115 mg/dL | Blood glucose (Male Wistar rats [6]; 6 hr): 125 mg/dL | Effect on blood glucose level (Male Wistar rats [6]): substantially no effect
